Test results published in patent publication US9617278B2, “Antimicrobial compounds” (Dow Global Technologies LLC, priority 2012, dated 2017).

How the values were obtained:
[1] = tested on: Thermus thermophilus (ATCC 27634); assay: Biocidal efficacy at elevated temperature; assay type: cell-based; settings: for log kill of treated bacterial populations relative to an untreated control: 50 ppm glutaraldehyde equivalent
Procedure: Compound 1 (208 mg) is dissolved in DMSO (5 mL) to yield a 200 mM solution such that the glutaraldehyde-equivalent concentration of the stock solution is 20,000 ppm. The bacterial strain Thermus thermophilus (ATCC 27634) is maintained at 70° C. After 24-48 hours of growth, 10 mL of bacterial culture are harvested by spinning in a Beckman-Coulter benchtop centrifuge at 3000 rpm for 15 min. The cell pellet is resuspended in 100 mL of phosphate-buffered saline (PBS) to give approximately 5×10^5 CFU/mL and aliquoted into 10 mL portions in glass test tubes fitted with screw caps. Samples are equilibrated to 37, 55, or 70° C. for 30 min and then treated with glutaraldehyde or Compound 1 at 50 ppm glutaraldehyde equivalent. The treated samples are returned to their respective equilibration temperatures for 4 h and then enumerated for surviving bacteria. After 24 h, the process is repeated by adding fresh grown bacteria to the samples to re-challenge the biocide. The samples are again enumerated after 4 h.
Results are reported in terms of log kill of treated bacterial populations relative to an untreated control at each temperature. For values listed as “>x,” actual kill may have been higher but could not be detected by this assay.

Desulfovibrio longus = assay: Biocidal efficacy at room temperature, sulfate reducing bacteria (SRB); assay type: cell-based; settings: for minimum dose needed to achieve 3-log reduction in bacteria levels: SRB, anaerobic PBS, doses 200 to 12 ppm glutaraldehyde equivalent, n/a = threshold not met at any tested dose; for activity against SRB (in words): compared with glutaraldehyde
Procedure: (§1) Glutaraldehyde and Compounds 1 and 2 are tested for biocidal activity against a pool of aerobic organisms at room temperature and against sulfate reducing bacteria (SRB) at room temperature. Tests are performed as follows:
(§2) a. Stock preparation. Glutaraldehyde (50% in water) and Compounds 1 and 2 are each dissolved in DMSO to a concentration of 200 mM, which is equivalent to 20,000 ppm of free glutaraldehyde.
b. Aerobic Bacteria—a mixed pool of 6 bacterial species at ˜5×10^6 CFU/mL in phosphate buffered saline is distributed into a 96-well plate. Each well receives an independent chemical treatment of glutaraldehyde or Compound 1 or 2 at concentrations ranging from 200 ppm to 12 ppm glutaraldehyde. A control treatment of DMSO alone is also included. Each condition is tested in triplicate. After set periods of incubation (1, 4, and 24 h), the number of surviving cells in each well are enumerated by dilution to extinction in a medium containing resazurin dye as an indicator. c. Sulfate Reducing Bacteria (SRB)—SRB testing is performed as for the aerobic bacteria with the following modifications: the species Desulfovibrio longus is tested in anaerobic PBS and the enumeration of surviving cells is performed in a medium containing soluble iron as an indicator. d. Results: Values indicate the minimum dose needed (in ppm) to achieve 3-log reduction in bacteria levels. “n/a” indicates the threshold was not met at any of the tested doses. “N.D” indicates data not available.

[2] = tested on: mixed pool of 6 bacterial species (aerobic organisms); assay: Biocidal efficacy at room temperature, aerobic bacteria; assay type: cell-based
Procedure: as §1, §2
b. Aerobic Bacteria—a mixed pool of 6 bacterial species at ˜5×10^6 CFU/mL in phosphate buffered saline is distributed into a 96-well plate. Each well receives an independent chemical treatment of glutaraldehyde or Compound 1 or 2 at concentrations ranging from 200 ppm to 12 ppm glutaraldehyde. A control treatment of DMSO alone is also included. Each condition is tested in triplicate. After set periods of incubation (1, 4, and 24 h), the number of surviving cells in each well are enumerated by dilution to extinction in a medium containing resazurin dye as an indicator. c. Sulfate Reducing Bacteria (SRB)—SRB testing is performed as for the aerobic bacteria with the following modifications: the species Desulfovibrio longus is tested in anaerobic PBS and the enumeration of surviving cells is performed in a medium containing soluble iron as an indicator. d. Results: Values indicate the minimum dose needed (in ppm) to achieve 3-log reduction in bacteria levels. […]

[3] = Stability of the compound on work-up, GC of dried sample; assay type: physicochemical; settings: GC peak becomes smaller after drying of the crude material
Procedure: A three neck 50 mL round bottom flask equipped with a stir bar, thermocouple, addition funnel capped with nitrogen inlet and condenser is charged with 2-amino-2-methylpropan-1-ol (95%, 7.8 g, 0.083 mols, 1.0 equivalents). The flask is cooled down to approximately 10° C. under ice/water bath. Once the temperature is reached, glutaraldehyde (50%, 16.7 g, 0.083 mols, 1.0 equivalents) is added drop wise over a period of 15-20 minutes. The reaction temperature is maintained by cooling the bath and by controlled addition of glutaraldehyde. After complete addition of glutaraldehyde, the transparent reaction mixture turns milky/opaque and a viscous sticky solid starts forming making stirring difficult. The reaction is stopped and the GC of the material is taken and a peak at 11.99 minutes is observed which corresponds to compound (4). The GC has some minor impurities in the high retention region. 20 mL of ethyl acetate is added to the reaction mixture and vigorously stirred under nitrogen. The entire content of the flask dissolve in ethyl acetate. The ethyl acetate layer is washed twice with 25 mL of water and the organic layer dried in magnesium sulfate.
A three neck 100 mL round bottom flask equipped with a stir bar, thermocouple, addition funnel capped with nitrogen inlet and condenser is charged with 3-aminobutan-2-ol (100%, 8.9 g, 0.1mols, 1.0 equivalent). […]

In the case of `CCCCC1OC2CCC=CN2C1CC` (stereo not drawn) [Compound 1, 2-butyl-3-ethyl-3,7,8,8a-tetrahydro-2H-oxazolo[3,2-a]pyridine], the “log kill of treated bacterial populations relative to an untreated control” value ([1]; 37° C., 4 hr) is reported as >3 log, the “log kill of treated bacterial populations relative to an untreated control” value ([1]; 37° C., 24 hr re-challenge with fresh bacteria, enumerated after 4 h) is reported as 2 log and the “log kill of treated bacterial populations relative to an untreated control” value ([1]; 55° C., 4 hr) is reported as >3 log. The “log kill of treated bacterial populations relative to an untreated control” value ([1]; 55° C., 24 hr re-challenge with fresh bacteria, enumerated after 4 h) was 1 log, the “activity compared with glutaraldehyde (in words)” value ([1]; 70° C.) was “equivalent activity to glutaraldehyde” and the “log kill of treated bacterial populations relative to an untreated control” value ([1]; 70° C., 4 hr) was >4 log. The “log kill of treated bacterial populations relative to an untreated control” value ([1]; 70° C., 24 hr re-challenge with fresh bacteria, enumerated after 4 h) was >4 log, the “activity compared with glutaraldehyde (in words)” value ([1]; lower temperatures (37, 55° C.)) was “less effective” and the “minimum dose needed to achieve 3-log reduction in bacteria levels” value (Desulfovibrio longus; 4 hours) was 200 ppm. For the same molecule, the “minimum dose needed to achieve 3-log reduction in bacteria levels” value (Desulfovibrio longus; 24 hours) was 26 ppm, the “activity against SRB (in words)” value (Desulfovibrio longus) was “some activity against SRB, but are not as effective as glutaraldehyde” and the “biocidal activity against aerobic bacteria (in words)” value [2] was “do not show significant biocidal activity”.

For `CCCCC(CC)C1OC2CCC=CN2C1C` (stereo not drawn) [Compound 2, 2-(heptan-3-yl)-3-methyl-3,7,8,8a-tetrahydro-2H-oxazolo[3,2-a]pyridine], the “minimum dose needed to achieve 3-log reduction in bacteria levels” value (Desulfovibrio longus; 1 hour) was 200 ppm, the “minimum dose needed to achieve 3-log reduction in bacteria levels” value (Desulfovibrio longus; 4 hours) was >200 ppm and the “activity against SRB (in words)” value (Desulfovibrio longus) was “some activity against SRB, but are not as effective as glutaraldehyde”. For the same molecule, the “biocidal activity against aerobic bacteria (in words)” value [2] was “do not show significant biocidal activity”.

In the case of `CC1(C)COC2CCC=CN21` (stereo not drawn) [Compound 4, 3,3-dimethyl-3,7,8,8a-tetrahydro-2H-oxazolo[3,2-a]pyridine], the “stability of the compound (in words)” value [3] is reported as “limited stability”.

With `CC1OC2CCC=CN2C1C` (stereo not drawn) [Compound 5, 2,3-dimethyl-3,7,8,8a-tetrahydro-2H-oxazolo[3,2-a]pyridine] the “stability of the compound (in words)” value [3] was “limited stability”.
